Measurements reported in patent US20060252740A1 (priority 2005, published 2006).

Tests used:
clinical = assay: clinical
Procedure: PK assessments included the following tests. […] The total number of PK samples collected was approximately 115 mL of whole blood (7-8 tablespoons). If a patient experienced a potentially drug-related SAE, additional PK samples were collected. Blood was drawn from the contralateral arm to the infusion site using an indwelling catheter to avoid multiple needle sticks. […] The blood tube was inverted several times and the tube placed in wet ice immediately pending separation of the plasma. If a catheter was used for blood collection, the fluid in the catheter was completely withdrawn prior to each sample collection and discarded. Plasma samples were kept on wet ice during collection and centrifugation. Plasma samples were split into two cryovials prior to freezing at −70° C.

[1] = Cellular assays (potency of 17-AAG versus 17-AG); assay type: cell-based
[2] = test system: adult patients with solid tumors; conditions: patients treated at 56 mg/m^2; cited from earlier work
[3] = test system: patients with advanced solid tumors; conditions: 80 mg/m^2 dose level, cited from earlier work
[4] = test system: patients with advanced solid tumors; conditions: population PK analysis; cited from earlier work
MM cells = conditions: cited from earlier work
[5] = 17-AG metabolite, Cohorts 3 & 4, 17-AAG 150 mg/m^2, Max
[6] = 17-AG metabolite, Cohorts 3 & 4, 17-AAG 150 mg/m^2, Median
[7] = 17-AG metabolite, Cohorts 3 & 4, 17-AAG 150 mg/m^2, Min

CO[C@H]1/C=C\C=C(/C)C(=O)NC2=CC(=O)C(N)=C(C[C@@H](C)C[C@H](OC)[C@H](O)[C@@H](C)/C=C(\C)[C@@H]1OC(N)=O)C2=O [17-AG, 17-aminogeldanamycin]
AUCext (clinical; [5]): 16.0% | AUCextra (clinical; [5]): 2,604 ng/mL * h | AUCtotal (clinical; [5]): 16,323 ng/mL * h | Lz (clinical; [5]): 0.1512 | AUCext (clinical; [6]): 5.0% | AUCtotal (clinical; [6]): 3,253 ng/mL * h | Lz (clinical; [6]): 0.1200 | AUCext (clinical; [7]): 2.2% | AUCtotal (clinical; [7]): 980 ng·h/mL | Lz (clinical; [7]): 0.0765 | average ratio of AUCtotal for the 17-AG to AUCtotal for the parent drug 17-AAG (clinical; data of Tables 2 and 3, cohorts 1-4): 82.5±90.5% | AUC(0-t) (clinical; human, plasma, intravenous, 100 mg/m2, AUClast, 17-AG metabolite, Cohorts 1 & 2, 17-AAG 100 mg/m^2, Mean): 3480 ng·h/mL | half-life (clinical; human, plasma, intravenous, Terminal elimination half-life, 17-AG metabolite, cohorts 1-4 combined): 6.52 ± 1.74 h | elimination in plasma profiles (clinical; plasma profiles after 17-AAG infusion): much slower elimination | relative potency of 17-AAG and 17-AG [1]: equipotent in cellular assays | Clearance [2]: 30.8 L/h/m^2 | VZ [2]: 203 L/m^2 | average AUC [2]: 5,558 nM*h | average t1/2 [2]: 8.6 h | t1/2 [3]: 1.75 h | Cmax ([3]; read-out: plasma Cmax): 607 nM | Clearance [4]: 21.3 L/h

CC(C)C[C@H](NC(=O)[C@H](Cc1ccccc1)NC(=O)c1cnccn1)B(O)O [bortezomib]
stress response of MM cells (MM cells; pre-clinical studies): triggers significant Hsp90 up-regulation | effect on drug resistance of MM cells (MM cells; preclinical and clinical studies): can overcome resistance of MM cells to conventional or high-dose cytotoxic chemotherapy
